Assays:
Settings in all cases: exposure time 48 h
[1] = system: Caenorhabditis elegans N2; assay: lowest effective concentration for larval growth inhibition (size below effect threshold); higher = less potent
Method in brief: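 Worm size was taken as per-worm extinction on the Biosort, log-transformed and turned into well means. The larvae (C. elegans N2, L1 stage, 50 per 96-well) had spent 48 h at 20°C in K-medium with killed bacteria, 1% DMSO and 0.5, 1, 5, 10, 50, 100 or 200 µM chemical. The lowest effective concentration marks the first dose where the plate-adjusted mean size drops under a cutoff and remains under it at every higher dose; the cutoff is 5.665.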

[2] = system: Caenorhabditis elegans N2; assay: AC50 for larval growth inhibition (Hill fit); higher = less potent
Method in brief: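 C. elegans N2 L1 larvae, synchronised and plated at 50 per well in 96-well plates, were exposed for 48 h at 20°C to 0.5–200 µM chemical in K-medium with killed OP50 and 1% DMSO. Log-transformed extinction from a COPAS Biosort served as worm size, averaged per well. Wells containing at least 10 worms entered the fit. A constrained Hill fit by weighted genetic-algorithm regression yielded the AC50, censored when out of range.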

[3] = system: Caenorhabditis elegans N2; assay: mean nematode size ln(EXT) after 48 h, plate-adjusted (DMSO control set to 6) (ln(EXT), control-adjusted); higher = larger nematodes / less growth inhibition
Method in brief: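 Chemical at 0.5–200 µM was tested on synchronised C. elegans N2 L1 larvae grown for 48 h at 20°C in K-medium with killed OP50 and 1% DMSO. Per-worm Biosort extinction, cleared of debris by a growth model, was natural-logged and averaged per well to give mean size. Plates were normalised by subtracting the vehicle control mean and adding 6.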

| SMILES | lowest effective concentration [1] [µM] | AC50 for larval growth inhibition [2] [µM] | mean nematode size ln(EXT) (ln) ([3]; 0.5 µM) | mean nematode size ln(EXT) (ln) ([3]; 1 µM) | mean nematode size ln(EXT) (ln) ([3]; 5 µM) | mean nematode size ln(EXT) (ln) ([3]; 10 µM) | mean nematode size ln(EXT) (ln) ([3]; 50 µM) | mean nematode size ln(EXT) (ln) ([3]; 100 µM) | mean nematode size ln(EXT) (ln) ([3]; 200 µM) |
| --- | --- | --- | --- | --- | --- | --- | --- | --- | --- |
| CN(C)C(=S)SSC(=S)N(C)C [Thiram] | 50 | 48.9 | 6 | 6.02 | 6.06 | 6.13 | 5.55 | 5.36 | 5.13 |
| CCc1cccc(C)c1N(C(=O)CCl)C(C)COC (centres undefined) [Metolachlor] | 50 | > 200 | 5.64 | 5.7 | 5.74 | 5.81 | 5.63 | 5.63 | 5.64 |
| O=C(O)C(O)C(O)C(=O)O (centres undefined) [Tartaric acid] | 200 | > 200 | 5.84 | 5.89 | 5.79 | 5.79 | 5.9 | 5.82 | 5.17 |
| C/C=C/c1ccc(OC)cc1 [(E)-Anethole] | 200 | > 200 | 6.06 | 5.98 | 6.01 | 6.06 | 5.97 | 5.96 | 5.49 |
| [N-]=[N+]=[N-] [Sodium azide] | 50 | > 200 | 5.79 | 5.92 | 5.83 | 5.76 | 5.63 | 5.45 | 5.49 |
| OCCC(F)(F)C(F)(F)C(F)(F)C(F)(F)C(F)(F)C(F)(F)C(F)(F)C(F)(F)F [1,1,2,2-Tetrahydroperfluoro-1-decanol] | 10 | > 200 | 5.86 | 5.67 | 5.72 | 5.62 | 5.54 | 5.37 | 4.6 |
| c1ccc(C(O[C@@H]2CCCN(CCc3ccc4c(c3)OCO4)C2)c2ccccc2)cc1 [Zamifenacin] | 10 | 70.4 | 5.83 | 5.81 | 5.73 | 5.55 | 4.99 | 4.17 | 3.31 |
| CCc1ccc(O)c(C(C)(C)C)c1 [2-tert-Butyl-4-ethylphenol] | 50 | > 200 | 5.77 | 5.75 | 5.72 | 5.86 | 5.45 | 5.58 | 4.88 |
| CC(C)(C)[C@H](O)[C@H](Cc1ccc(Cl)cc1)n1cncn1 (racemic) [Paclobutrazol] | 50 | > 200 | 5.57 | 5.77 | 5.8 | 5.97 | 5.33 | 5.58 | 4.63 |
| CCCCCCC(=O)O [Heptanoic acid] | 200 | > 200 | 5.88 | 5.97 | 5.87 | 6.04 | 5.85 | 5.87 | 5.43 |
| Clc1ccc(C(c2ccc(Cl)cc2)C(Cl)Cl)cc1 [p,p'-DDD] | ≤ 0.5 | 1.88 | 5.59 | 5.57 | 3.62 | 3.7 | 3.68 | 3.57 | 3.14 |
| CCCCN(CCCC)SN(C)C(=O)Oc1cccc2c1OC(C)(C)C2 [Carbosulfan] | 1 | 60.2 | 5.76 | 5.51 | 5.04 | 4.86 | 5.15 | 4.44 | 4 |
| Cc1nccn1-c1ccc(Sc2cccc(C3(C(N)=O)CCOCC3)c2)cc1 | 200 | > 200 | 5.74 | 6.03 | 5.84 | 5.88 | 5.86 | 5.81 | 5.48 |
| CCCCOC(=O)c1ccc(O)cc1 [Butylparaben] | 200 | 103 | 5.84 | 5.8 | 5.75 | 5.78 | 5.96 | 5.68 | 5.19 |
| Oc1ccc2c(c1)-c1ccccc1C2 [3-Hydroxyfluorene] | 50 | 97.8 | 5.81 | 5.96 | 5.84 | 5.97 | 5.6 | 4.66 | 3.77 |
| O=P(OC(CCl)CCl)(OC(CCl)CCl)OC(CCl)CCl [Tris(1,3-dichloro-2-propyl) phosphate (TDCPP)] | 50 | 117 | 5.85 | 5.86 | 5.83 | 5.77 | 5.39 | 4.98 | 3.63 |
| O=C1c2ccccc2C(=O)N1SC(Cl)(Cl)Cl [Folpet] | 50 | > 200 | 5.89 | 5.98 | 5.57 | 5.84 | 5.53 | 5.55 | 5.09 |
| Fc1ccc(Oc2ccnc3cc(Cl)cc(Cl)c23)cc1 [Quinoxyfen] | ≤ 0.5 | 1.53 | 4.9 | 5.31 | 4.26 | 4.2 | 3.97 | 4 | 3.68 |

| SMILES | lowest effective concentration [1] [µM] | AC50 for larval growth inhibition [2] [µM] | mean nematode size ln(EXT) (ln) ([3]; 0.5 µM) | mean nematode size ln(EXT) (ln) ([3]; 1 µM) | mean nematode size ln(EXT) (ln) ([3]; 5 µM) | mean nematode size ln(EXT) (ln) ([3]; 10 µM) | mean nematode size ln(EXT) (ln) ([3]; 50 µM) | mean nematode size ln(EXT) (ln) ([3]; 100 µM) | mean nematode size ln(EXT) (ln) ([3]; 200 µM) |
| --- | --- | --- | --- | --- | --- | --- | --- | --- | --- |
| c1ccc2cc3c(ccc4ccccc43)cc2c1 [Benz[a]anthracene] | 1 | 24.9 | 5.89 | 4.38 | 5.22 | 5.01 | 4.59 | 4.58 | 3.32 |
| c1ccc2cc3ccccc3cc2c1 [Anthracene] | 5 | 2.12 | 5.97 | 5.76 | 4.34 | 3.78 | 4.06 | 4.36 | 4.12 |
| COC(=O)[C@H]1[C@H]2C[C@@H]3c4[nH]c5cc(OC)ccc5c4CCN3C[C@H]2C[C@@H](OC(=O)c2cc(OC)c(OC)c(OC)c2)[C@@H]1OC [Reserpine] | 10 | 12.6 | 5.86 | 5.87 | 5.74 | 5.66 | 5.04 | 4.95 | 5.17 |
| O=C1C2(Cl)C3(Cl)C4(Cl)C(Cl)(Cl)C5(Cl)C3(Cl)C1(Cl)C5(Cl)C24Cl (centres undefined) [Kepone (Chlordecone)] | 1 | 3.31 | 5.67 | 5.53 | 4.74 | 4.04 | 3.69 | 3.63 | 4.06 |
| C1=CCCC=CCCC=CCC1 [1,5,9-Cyclododecatriene] | 200 | > 200 | 5.89 | 5.9 | 5.9 | 5.83 | 5.92 | 5.86 | 5.34 |
| CC[C@H]1CC[C@H](NCc2cc3c(cc2OC)[C@H]2C[C@H]2C(=O)N3C)[C@H](c2ccccc2)N1 | 200 | > 200 | 5.85 | 5.81 | 5.87 | 5.86 | 5.77 | 5.85 | 5.48 |
| NC(=O)c1nc(-c2cccc(-c3cc(F)ccc3OCC(F)(F)C(F)(F)F)c2)n[nH]1 | 50 | 50.6 | 5.73 | 5.81 | 5.71 | 5.78 | 5.53 | 4.97 | 5.09 |
| CC(C)=CC1C(C(=O)OCc2coc(Cc3ccccc3)c2)C1(C)C (centres undefined) [Resmethrin] | 200 | > 200 | 5.75 | 5.64 | 5.46 | 5.58 | 5.84 | 5.8 | 4.98 |
| C[Si](Cn1cncn1)(c1ccc(F)cc1)c1ccc(F)cc1 [Flusilazole] | 5 | 43.2 | 5.73 | 5.67 | 5.55 | 5.53 | 4.57 | 3.63 | 3.47 |
| CCc1nn(C)c(C(=O)NCc2ccc(C(C)(C)C)cc2)c1Cl [Tebufenpyrad] | ≤ 0.5 | 1.03 | 4.96 | 5.23 | 3.83 | 3.7 | 3.95 | 4.11 | 3.36 |
| COC(=O)C=C(C)OP(=O)(OC)OC [Mevinphos] | 200 | 156 | 6.16 | 6.21 | 6.22 | 6.29 | 4.99 | 5.74 | 3.88 |
| CCOC(=O)COc1ccc2c(c1)CC(NCC(O)c1cccc(Cl)c1)CC2 (centres undefined) | 200 | > 200 | 5.79 | 5.81 | 5.87 | 5.81 | 5.76 | 5.75 | 5.5 |
| CCCCC(CC)COC(=O)CCCCC(=O)OCC(CC)CCCC (centres undefined) [Di(2-ethylhexyl)adipate] | 200 | > 200 | 5.87 | 5.8 | 5.73 | 5.76 | 5.75 | 5.82 | 5.55 |
| CN(C)[C@@H]1C(=O)C(C(N)=O)=C(O)[C@@]2(O)C(=O)C3=C(O)c4c(O)cccc4[C@@](C)(O)[C@H]3C[C@@H]12 [Tetracycline] | 100 | 103 | 6.03 | 6.08 | 6.03 | 6.05 | 6.06 | 5.64 | 4.89 |
| CCC(C)(C)C(=O)OC1=C(c2ccc(Cl)cc2Cl)C(=O)OC12CCCCC2 [Spirodiclofen] | 50 | 24 | 5.74 | 5.86 | 5.7 | 5.73 | 4.53 | 4.72 | 4.25 |
| O=C(O)C(F)(F)C(F)(F)C(F)(F)C(F)(F)C(F)(F)C(F)(F)C(F)(F)C(F)(F)C(F)(F)F [Perfluorodecanoic acid] | 5 | 14.6 | 5.85 | 5.87 | 5.14 | 4.6 | 4.06 | 3.96 | 3.16 |
| Cn1sc(Cl)cc1=O [5-Chloro-2-methyl-3(2H)-isothiazolone] | 200 | > 200 | 5.96 | 5.93 | 5.95 | 6 | 5.9 | 5.82 | 5.55 |
| CCCCCCCCCCCCCCO [1-Tetradecanol] | 10 | 19.7 | 5.94 | 5.92 | 5.87 | 5.61 | 3.67 | 3.57 | 3.42 |
